According to patent US9943537B2, “Antitumor agent and antitumor effect enhancer” (TAIHO PHARMACEUTICAL CO., LTD., priority 2013, dated 2018):

Tests used:
[1] = Body weight change of MC-2-bearing nude mice (toxicity); format: in vivo, mouse; details: MC-2, Day 15, dose 1.5 mg/kg/day
Experimental: (§1) A human colon cancer cell line (KM20C) was transplanted onto the right chest of a five to six week-old BALB/cA Jcl-nu mouse. The length (mm) and the breadth (mm) of the tumor after the tumor transplantation were measured, and the tumor volume (TV) was calculated. Then, the mouse was allocated into each group such that the average TV in each group was equal, and the day when the grouping (n=6 to 7) was implemented was assumed to be Day 0.
(§2) As an index of the antitumor effect, the TV in each group was calculated, and the relative tumor volume (RTV) for Day 0 was obtained from the equation below and plotted. The chronological changes of RTV were compared among no treatment group (control), an FTD/TPI combination drug-treated group, a bevacizumab-treated group, and a FTD/TPI combination drug and bevacizumab combination-treated group. In addition, the weight loss as the toxicity was evaluated. TV(mm^3)=(length×breadth^2)/2 RTV=(TV on evaluation day)/(TV on Day 0)
(§3) Next, a test was performed in the same manner using a human breast cancer cell line (MC-2).

[2] = tested on: human breast cancer cell line (MC-2); test: MC-2 xenograft in nude mice, relative tumor volume and days till RTV reached 2; FTD/TPI and bevacizumab; format: in vivo
Experimental: as §1, §2, §3
With respect to the time period during which the tumor volume doubled from Day 0 (namely, RTV becomes 2), the results of the combination-treated group were predicted from the single agent-treated group of FIGS. 5 and 6. The “length of days till RTV actually reached 2” was calculated under the assumption that RTV on the measurement day when RTV firstly exceeded 2 changes according to a linear function from RTV on the measurement day immediately before the day.

[3] = Body weight change of KM20C-bearing nude mice (toxicity); format: in vivo, mouse
Experimental: as §1
(§4) The administration dose of the drug was 10 mL/kg, and the FTD/TPI combination drug (a mixture of FTD and TPI at a molar ratio of 1:0.5) was prepared to be 150 mg/kg/day as the dose of FTD.
As an index of the antitumor effect, the TV in each group was calculated, and the relative tumor volume (RTV) for Day 0 was obtained from the equation below and plotted. […] In addition, the weight loss as the toxicity was evaluated. TV(mm^3)=(length×breadth^2)/2 RTV=(TV on evaluation day)/(TV on Day 0)

[4] = tested on: human colon cancer cell line (KM20C); test: KM20C xenograft in nude mice, relative tumor volume; FTD/TPI oral Days 1 to 14, bevacizumab into abdominal cavity twice a week for two weeks; format: in vivo
Experimental: as §1, §4, §2

[5] = Body weight change of Co-3-bearing nude mice, panitumumab study (toxicity); format: in vivo, mouse
Experimental: (§5) A human colon cancer cell line (Co-3) was transplanted onto the right chest of a five to six week-old BALB/cA Jcl-nu mouse. The length (mm) and the breadth (mm) of the tumor after the tumor transplantation were measured, and the tumor volume (TV) was calculated. Then, the mouse was allocated into each group such that the average TV in each group was equal, and the day when the grouping (n=6) was implemented was assumed to be Day 0.
(§6) The administration dose of the drug was 10 mL/kg, and the FTD/TPI combination drug (a mixture of FTD and TPI at the molar ratio of 1:0.5) was prepared to be 150 mg/kg/day as the dose of FTD. Panitumumab (Vectibix (registered trademark) injection, Amgen Inc.) was prepared to be 0.30, 0.89, 2.7 and 8 mg/kg/day. The FTD/TPI combination drug was orally administered on Days 1 to 14 every day, and panitumumab was administered into the abdominal cavity for two weeks at a frequency of twice a week from Day 1. To the combination-treated group, the FTD/TPI combination drug and panitumumab were administered in the same doses and the same administration schedules as those of the single agent-treated group.
As an index of the antitumor effect, TV on Days 5, 8, 12 and 15 was calculated in each group, and the relative tumor volume (RTV) for Day 0 was obtained according to the formula of Example 1 and plotted. The chronological changes of RTV were compared of no treatment group (control), the FTD/TPI combination drug-treated group, the panitumumab-treated group and the combination FTD/TPI combination drug and panitumumab treated group. In addition, the weight loss as the toxicity was evaluated.

[6] = tested on: human colon cancer cell line (Co-3); test: Co-3 xenograft in nude mice, relative tumor volume; FTD/TPI oral Days 1 to 14, panitumumab into abdominal cavity twice a week for two weeks; format: in vivo
Experimental: as §5, §6
[…] The chronological changes of RTV were compared of no treatment group (control), the FTD/TPI combination drug-treated group, the panitumumab-treated group and the combination FTD/TPI combination drug and panitumumab treated group. In addition, the weight loss as the toxicity was evaluated.

[7] = MC-2, Day 15, dose 1.5 mg/kg/day
[8] = Co-3, Day 29, dose 0.30 mg/kg/day
[9] = Co-3, Day 29, dose 0.89 mg/kg/day
[10] = Co-3, Day 29, dose 2.7 mg/kg/day

Bevacizumab: anti-VEGF humanized monoclonal antibody (Avastin injection, Chugai Pharmaceutical Co., Ltd.)
Body weight change (%, mean ± SD) [1]: 7.7 ± 3.7%
IR (%) tumor growth inhibition rate [2, 7]: 41.1%
RTV (mean ± SD) [2, 7]: 3.06 ± 0.88
Length of Days (day) till RTV actually reached 2 ([2]; MC-2, single agent, bevacizumab 1.5 mg/kg/day): 7.71 days
Body weight change (%, mean ± SD) ([3]; Day 29, dose 0.20 mg/kg/day): 9.7 ± 5.1%
Body weight change (%, mean ± SD) ([3]; Day 29, dose 0.55 mg/kg/day): 3.2 ± 6.0%
Body weight change (%, mean ± SD) ([3]; Day 29, dose 1.7 mg/kg/day): 5.2 ± 6.7%
IR (%) tumor growth inhibition rate ([4]; Day 29, dose 0.20 mg/kg/day): 34.3%
RTV (mean ± SD) ([4]; Day 29, dose 0.20 mg/kg/day): 8.93 ± 2.79
IR (%) tumor growth inhibition rate ([4]; Day 29, dose 0.55 mg/kg/day): 28.5%
RTV (mean ± SD) ([4]; Day 29, dose 0.55 mg/kg/day): 9.71 ± 4.99
IR (%) tumor growth inhibition rate ([4]; Day 29, dose 1.7 mg/kg/day): 39.7%
RTV (mean ± SD) ([4]; Day 29, dose 1.7 mg/kg/day): 8.19 ± 2.29
IR (%) tumor growth inhibition rate ([4]; Day 29, dose 5 mg/kg/day): 38.6%
RTV (mean ± SD) ([4]; Day 29, dose 5 mg/kg/day): 8.34 ± 1.82

Panitumumab: anti-EGFR human-type fully monoclonal antibody (Vectibix injection, Amgen Inc.)
Body weight change (%, mean ± SD) [5, 8]: −11.3 ± 5.3%
Body weight change (%, mean ± SD) [5, 9]: −6.7 ± 4.3%
Body weight change (%, mean ± SD) [5, 10]: −1.2 ± 3.1%
Body weight change (%, mean ± SD) ([5]; Co-3, Day 29, dose 8 mg/kg/day): −4.5 ± 4.5%
IR (%) tumor growth inhibition rate [6, 8]: 23.0%
RTV (mean ± SD) [6, 8]: 18.15 ± 6.79
IR (%) tumor growth inhibition rate [6, 9]: 35.9%
RTV (mean ± SD) [6, 9]: 15.10 ± 7.51
IR (%) tumor growth inhibition rate [6, 10]: 46.1%
RTV (mean ± SD) [6, 10]: 12.71 ± 4.37
IR (%) tumor growth inhibition rate ([6]; Co-3, Day 29, dose 8 mg/kg/day): 45.0%
RTV (mean ± SD) ([6]; Co-3, Day 29, dose 8 mg/kg/day): 12.97 ± 2.33
